For the experiment, the target named is human NaV 1.8 (Homo sapiens, UniProt Q9Y5Y9). The experiment is described as follows: E-VIPR assay detecting and measuring NaV inhibition properties. In kind it is cell-based. The settings on record: HEK cells expressing a truncated form of human NaV 1.8; electrical stimulation, membrane potential FRET dyes. The text has this: E-VIPR Assay Detecting and Measuring NaV Inhibition Properties
Sodium ion channels are voltage-dependent proteins that can be activated by inducing membrane voltage changes by applying electric fields. The electrical stimulation instrument and methods of use, referred to as E-VIPR, are described in International Publication No. WO 2002/008748 A3 and C.-J. Huang et al. Characterization of voltage-gated sodium channel blockers by electrical stimulation and fluorescence detection of membrane potential, 24 Nature Biotech. 439-46 (2006), both of which are incorporated by reference in their entirety. The instrument comprises a microtiter plate handler, an optical system for exciting the coumarin dye while simultaneously recording the coumarin and oxonol emissions, a waveform generator, a current- or voltage-controlled amplifier, and parallel electrode pairs that are inserted into assay plate wells. Under integrated computer control, this instrument passes user-programmed electrical stimulus protocols to cells within the wells of the microtiter plate.
16-20 hours prior to running the assay on E-VIPR, HEK cells expressing a truncated form of human NaV 1.8 with full channel activity were seeded into microtiter 384-well plates, pre-coated with matrigel, at a density of 25,000 cells per well. 2.5-5% KIR2.1 Bacmam virus was added to the final cell suspension before seeding into cell plates. HEK cells were grown in Dulbecco's Modified Eagle's Medium (DMEM) supplemented with 10% FBS (Fetal Bovine Serum, qualified; Sigma #F4135), 1% NEAA (Non-Essential Amino Acids, Gibco #11140), 1% HEPES (Gibco #15630), 1% Pen-Strep (Penicillin-Streptomycin; Gibco #15140) and 5 μg/ml Blasticidin (Gibco #R210-01). Cells were expanded in vented cap cell culture flasks, with 90-95% humidity and 5% CO2.
Reagents and Stock Solutions:
100 mg/mL Pluronic F-127 (Sigma #P2443), in dry DMSO
Compound Plates: Corning 384-well Polypropylene Round Bottom #3656
Cell Plates: 384-well tissue culture treated plates (Greiner #781091-2B)
2.5-5% KIR 2.1 Bacmam virus (produced in-house), prepared as described in Section 3.3 of J. A. Fornwald et al., Gene Expression in Mammalian Cells Using BacMam, a Modified Baculovirus System, 1350 Methods in Molecular Biology 95-116 (2016), the entire contents of which are incorporated by reference. The concentration used can be dependent on viral titer of each batch.
5 mM DiSBAC6(3), a voltage sensitive oxonol acceptor (CAS number 169211-44-3; 5-[3-(1,3-dihexylhexahydro-4,6-dioxo-2-thioxo-5-pyrimidinyl)-2-propen-1-ylidene]-1,3-dihexyldihydro-2-thioxo-4,6(1H,5H)-pyrimidinedione), in dry DMSO. The preparation of DiSBAC6(3) is analogous to that of DiSBAC4(3) as described in Voltage Sensing by Fluorescence Resonance Energy Transfer in Single Cells, Gonzalez, J. E. and Tsien, R. Y. (1995) Biophys. J. 69, 1272-1280.
5 mM CC2-DMPE, a commercially available membrane-bound coumarin phospholipid FRET donor (ThermoFisher Scientific catalog number K1017, CAS number 393782-57-5; tetradecanoic acid, 1,1′-[(1R)-1-[8-(6-chloro-7-hydroxy-2-oxo-2H-1-benzopyran-3-yl)-3-hydroxy-3-oxido-8-oxo-2,4-dioxa-7-aza-3-phosphaoct-1-yl]-1,2-ethanediyl]ester) was prepared in dry DMSO. See also, Improved indicators of cell membrane potential that use fluorescence resonance energy transfer, Gonzalez, J. E. and Tsien, R. Y. (1997) Chem. Biol. 4, 269-277.
Voltage Assay Background Suppression Compound (VABSC-1) is prepared in H2O (89-363 mM, range used to maintain solubility)
Human Serum (HS, Millipore #S1P1-01KL, or Sigma SLBR5469V and SLBR5470V as a 50%/50% mixture, for 25% assay final concentration)
Bath 1 Buffer: • Sodium Chloride 160 mM (9.35 g/L), Potassium Chloride, 4.5 mM (0.335 g/L), Glucose 10 mM (1.8 g/L), Magnesium Chloride (Anhydrous) 1 mM (0.095 g/L), Calcium Chloride 2 mM (0.222 g/L), HEPES 10 mM (2.38 g/L) in water. […]

Each structure is given as a SMILES string.

Sequence of human NaV 1.8 (Q9Y5Y9 126-1722 limits assumed): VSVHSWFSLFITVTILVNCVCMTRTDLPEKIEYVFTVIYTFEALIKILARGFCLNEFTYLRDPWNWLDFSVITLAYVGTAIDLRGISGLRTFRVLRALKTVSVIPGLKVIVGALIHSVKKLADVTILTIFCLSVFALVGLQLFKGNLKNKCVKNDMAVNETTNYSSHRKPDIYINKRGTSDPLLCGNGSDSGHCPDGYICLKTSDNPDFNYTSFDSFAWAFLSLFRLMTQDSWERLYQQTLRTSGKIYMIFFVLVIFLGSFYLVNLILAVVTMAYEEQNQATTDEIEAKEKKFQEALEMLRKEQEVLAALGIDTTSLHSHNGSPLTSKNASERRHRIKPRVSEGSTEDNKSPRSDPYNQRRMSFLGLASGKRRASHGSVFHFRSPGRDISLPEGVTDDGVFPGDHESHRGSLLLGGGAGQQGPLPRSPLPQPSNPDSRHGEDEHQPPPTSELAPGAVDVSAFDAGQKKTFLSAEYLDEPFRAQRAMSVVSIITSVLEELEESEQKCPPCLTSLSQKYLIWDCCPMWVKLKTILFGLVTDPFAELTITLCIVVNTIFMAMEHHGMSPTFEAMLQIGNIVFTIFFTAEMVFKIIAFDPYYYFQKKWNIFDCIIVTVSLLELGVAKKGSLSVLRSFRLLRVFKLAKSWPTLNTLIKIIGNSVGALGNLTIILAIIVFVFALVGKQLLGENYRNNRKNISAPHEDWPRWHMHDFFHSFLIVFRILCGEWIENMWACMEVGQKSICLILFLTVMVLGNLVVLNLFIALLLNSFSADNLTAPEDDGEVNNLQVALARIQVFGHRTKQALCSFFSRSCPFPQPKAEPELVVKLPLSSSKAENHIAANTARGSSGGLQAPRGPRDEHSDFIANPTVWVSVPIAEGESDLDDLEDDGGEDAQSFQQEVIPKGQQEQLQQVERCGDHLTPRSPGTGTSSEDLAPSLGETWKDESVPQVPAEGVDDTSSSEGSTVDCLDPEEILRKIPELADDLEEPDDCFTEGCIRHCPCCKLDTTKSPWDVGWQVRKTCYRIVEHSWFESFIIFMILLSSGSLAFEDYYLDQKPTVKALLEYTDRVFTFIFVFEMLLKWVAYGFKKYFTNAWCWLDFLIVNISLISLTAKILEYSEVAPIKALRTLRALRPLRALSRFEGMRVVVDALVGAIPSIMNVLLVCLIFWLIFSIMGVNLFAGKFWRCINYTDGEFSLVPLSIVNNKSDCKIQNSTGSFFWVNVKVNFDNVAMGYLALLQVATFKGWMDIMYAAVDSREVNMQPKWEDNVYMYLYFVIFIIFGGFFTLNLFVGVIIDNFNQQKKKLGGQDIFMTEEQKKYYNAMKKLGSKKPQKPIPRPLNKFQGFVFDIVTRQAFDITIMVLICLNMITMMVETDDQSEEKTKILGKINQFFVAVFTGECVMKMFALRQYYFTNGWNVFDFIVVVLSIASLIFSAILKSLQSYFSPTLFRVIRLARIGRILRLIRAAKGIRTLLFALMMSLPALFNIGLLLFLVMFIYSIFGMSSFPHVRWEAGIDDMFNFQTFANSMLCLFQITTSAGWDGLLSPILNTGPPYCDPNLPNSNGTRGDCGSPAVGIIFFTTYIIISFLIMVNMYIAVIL

As for `CCOc1c([C@H]2C[C@@](C)(C(F)(F)F)O[C@@H]2C(=O)Nc2ccc([C@H](O)CO)nc2)ccc(F)c1F` (single isomer, unassigned) [Compound 32, rel-(2S,3R,5S)-N-(6-((S*)-1,2-dihydroxyethyl)pyridin-3-yl)-3-(2-ethoxy-3,4-difluorophenyl)-5-methyl-5-(trifluoromethyl)tetrahydrofuran-2-carboxamide], the IC50 (in general, the midpoint of a concentration-inhibition curve) was no less than 1 µM.
The result for `CCOc1c([C@@H]2C[C@](C)(C(F)(F)F)O[C@H]2C(=O)Nc2ccc([C@H](O)CO)nc2)ccc(F)c1F` (single isomer, unassigned) [Compound 33, rel-(2R,3S,5R)-N-(6-((S*)-1,2-dihydroxyethyl)pyridin-3-yl)-3-(2-ethoxy-3,4-difluorophenyl)-5-methyl-5-(trifluoromethyl)tetrahydrofuran-2-carboxamide] reads 0.1 to 1 µM; that for `CCOc1c([C@H]2C[C@@](C)(C(F)(F)F)O[C@@H]2C(=O)Nc2ccc([C@@H](O)CO)nc2)ccc(F)c1F` (single isomer, unassigned) [Compound 34, rel-(2S,3R,5S)-N-(6-((R*)-1,2-dihydroxyethyl)pyridin-3-yl)-3-(2-ethoxy-3,4-difluorophenyl)-5-methyl-5-(trifluoromethyl)tetrahydrofuran-2-carboxamide], no less than 1 µM.
`CCOc1c([C@@H]2C[C@](C)(C(F)(F)F)O[C@H]2C(=O)Nc2ccc([C@@H](O)CO)nc2)ccc(F)c1F` (single isomer, unassigned) [Compound 35, rel-(2R,3S,5R)-N-(6-((R*)-1,2-dihydroxyethyl)pyridin-3-yl)-3-(2-ethoxy-3,4-difluorophenyl)-5-methyl-5-(trifluoromethyl)tetrahydrofuran-2-carboxamide] returned an IC50 of 0.01 to 0.1 µM.
The result for `CCOc1c([C@H]2[C@H](C(=O)Nc3ccc([C@@H](O)CO)nc3)O[C@@](C)(C(F)(F)F)[C@H]2C)ccc(F)c1C` (single isomer, unassigned) [Compound 40, rel-(2R,3S,4S,5R)—N-(6-((R*)-1,2-dihydroxyethyl)pyridin-3-yl)-3-(2-ethoxy-4-fluoro-3-methylphenyl)-4,5-dimethyl-5-(trifluoromethyl)tetrahydrofuran-2-carboxamide] reads less than 0.01 µM; that for `CCOc1c([C@@H]2[C@@H](C(=O)Nc3ccc([C@@H](O)CO)nc3)O[C@](C)(C(F)(F)F)[C@@H]2C)ccc(F)c1C` (single isomer, unassigned) [Compound 41, rel-(2S,3R,4R,5S)—N-(6-((R*)-1,2-dihydroxyethyl)pyridin-3-yl)-3-(2-ethoxy-4-fluoro-3-methylphenyl)-4,5-dimethyl-5-(trifluoromethyl)tetrahydrofuran-2-carboxamide], no less than 1 µM; that for `CCOc1c([C@H]2[C@H](C(=O)Nc3ccc([C@H](O)CO)nc3)O[C@@](C)(C(F)(F)F)[C@H]2C)ccc(F)c1C` (single isomer, unassigned) [Compound 42, rel-(2R,3S,4S,5R)-N-(6-((S*)-1,2-dihydroxyethyl)pyridine-3-yl)-3-(2-ethoxy-4-fluoro-3-methylphenyl)-4,5-dimethyl-5-(trifluoromethyl)tetrahydrofuran-2-carboxamide], less than 0.01 µM.
The figure for `CCOc1c([C@@H]2[C@@H](C(=O)Nc3ccc([C@H](O)CO)nc3)O[C@](C)(C(F)(F)F)[C@@H]2C)ccc(F)c1C` (single isomer, unassigned) [Compound 43, rel-(2S,3R,4R,5S)-N-(6-((S*)-1,2-dihydroxyethyl)pyridin-3-yl)-3-(2-ethoxy-4-fluoro-3-methylphenyl)-4,5-dimethyl-5-(trifluoromethyl)tetrahydrofuran-2-carboxamide] is no less than 1 µM.
The result for `COc1c(C2C(C(=O)Nc3ccc(C(O)CO)nc3)OC(C)(C(F)(F)F)C2C)ccc(F)c1C` (single isomer, unassigned) [Compound 44, rel-(2S,3R,4R,5S)-N-(6-((S*)-1,2-dihydroxyethyl)138yridine-3-yl)-3-(4-fluoro-2-methoxy-3-methylphenyl)-4,5-dimethyl-5-(trifluoromethyl)tetrahydrofuran-2-carboxamide] reads no less than 1 µM; that for `COc1c([C@H]2[C@H](C(=O)Nc3ccc([C@H](O)CO)nc3)O[C@@](C)(C(F)(F)F)[C@H]2C)ccc(F)c1C` (single isomer, unassigned) [Compound 45, rel-(2R,3S,4S,5R)-N-(6-((S*)-1,2-dihydroxyethyl)pyridin-3-yl)-3-(4-fluoro-2-methoxy-3-methylphenyl)-4,5-dimethyl-5-(trifluoromethyl)tetrahydrofuran-2-carboxamide], 0.01 to 0.1 µM.
In turn, `COc1c([C@@H]2[C@@H](C(=O)Nc3ccc([C@@H](O)CO)nc3)O[C@](C)(C(F)(F)F)[C@@H]2C)ccc(F)c1C` (single isomer, unassigned) [Compound 46, rel-(2S,3R,4R,5S)-N-(6-((R*)-1,2-dihydroxyethyl)pyridin-3-yl)-3-(4-fluoro-2-methoxy-3-methylphenyl)-4,5-dimethyl-5-(trifluoromethyl)tetrahydrofuran-2-carboxamide] yielded an IC50 of no less than 1 µM.
`COc1c([C@H]2[C@H](C(=O)Nc3ccc([C@@H](O)CO)nc3)O[C@@](C)(C(F)(F)F)[C@H]2C)ccc(F)c1C` (single isomer, unassigned) [Compound 47, rel-(2R,3S,4S,5R)-N-(6-((R*)-1,2-dihydroxyethyl)pyridin-3-yl)-3-(4-fluoro-2-methoxy-3-methylphenyl)-4,5-dimethyl-5-(trifluoromethyl)tetrahydrofuran-2-carboxamide]: the IC50 is less than 0.01 µM.
The result for `COc1c([C@@H]2[C@@H](C(=O)Nc3ccc([C@H](O)CO)nc3)O[C@](C)(C(F)(F)F)[C@@H]2C)ccc(F)c1C(F)F` (single isomer, unassigned) [Compound 48, rel-(2S,3R,4R,5S)-3-(3-(difluoromethyl)-4-fluoro-2-methoxyphenyl)-N-(6-((S*)-1,2-dihydroxyethyl)pyridin-3-yl)-4,5-dimethyl-5-(trifluoromethyl)tetrahydrofuran-2-carboxamide] reads no less than 1 µM; that for `COc1c([C@H]2[C@H](C(=O)Nc3ccc([C@H](O)CO)nc3)O[C@@](C)(C(F)(F)F)[C@H]2C)ccc(F)c1C(F)F` (single isomer, unassigned) [Compound 49, rel-(2R,3S,4S,5R)-3-(3-(difluoromethyl)-4-fluoro-2-methoxyphenyl)-N-(6-((S*)-1,2-dihydroxyethyl)pyridin-3-yl)-4,5-dimethyl-5-(trifluoromethyl)tetrahydrofuran-2-carboxamide], less than 0.01 µM; that for `COc1c(C2C(C(=O)Nc3ccc(C(O)CO)nc3)OC(C)(C(F)(F)F)C2C)ccc(F)c1C(F)F` (single isomer, unassigned) [Compound 50], no less than 1 µM.
The figure for `COc1c(C2C(C(=O)Nc3ccc(C(O)CO)nc3)OC(C)(C(F)(F)F)C2C)ccc(F)c1C(F)F` (single isomer, unassigned) [Compound 51] is less than 0.01 µM; for `COc1c(C2C(C(=O)Nc3ccc(CO)nc3)OC(C)(C(F)(F)F)C2C)ccc(F)c1C(F)F` (single isomer, unassigned) [Compound 52] it is no less than 1 µM; for `COc1c(C2C(C(=O)Nc3ccc(CO)nc3)OC(C)(C(F)(F)F)C2C)ccc(F)c1C(F)F` (single isomer, unassigned) [Compound 53] it is less than 0.01 µM.

The values above are taken from patent US11827627B2, “N-(hydroxyalkyl (hetero)aryl) tetrahydrofuran carboxamides as modulators of sodium channels” (VERTEX PHARMACEUTICALS INCORPORATED, priority 2021, dated 2023).
